The source of these data is PubChem BioAssay (NCI).

Assay in all cases: NCI tumour cell line growth inhibition, 48 h
Test [1] has as its system HCC-2998 colon.
The test system of test [2] is HOP-62 NSCLC.
Test [3] has as its system SF-539 CNS.
For test [4], the system named is OVCAR-4 ovarian.
The test system of test [5] is OVCAR-3 ovarian.
For test [6], the system named is HL-60(TB) leukemia.
The test system of test [7] is EKVX NSCLC.
Test [8] has as its system ACHN renal.
For test [9], the system named is BT-549 breast.
Test [10] relates to SF-295 CNS.

Values joined by “and” are separate entries in the source; they are usually repeats but may differ in a detail not shown here. Equal values may be shown once.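 All cell lines were grown in 96-well plates and treated with compound for 48 hours. Definition used: TGI = concentration required for complete inhibition of growth.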 Bounds are passed on as bounds.

In the case of `COC(=O)C1C2CC3C(OC(=O)C31)C2OC(=O)[C@](OC)(c1ccccc1)C(F)(F)F` (stereo partly specified), the TGI in test [1], in test [2], in test [3], in test [4], in test [5] and in test [6] was over 100 µM each time. For the same molecule, the TGI in [7] and in test [8] was over 100 µM each time.
As to `C#CCOC(=O)C(N)CCSC` (stereo unspecified), the TGI in test [2], in test [9], in test [5], in test [6], in test [10] and in [7] was over 100 µM in each case. The same molecule displayed a TGI in test [8] of over 100 µM.
In the case of `O=C1NC2(C=Cc3c(ccc4ccccc34)O2)Oc2ccccc21` (stereo unspecified), the TGI is over 100 µM in test [2]; 50.2 µM in [3]; over 100 µM in test [4]; 59.8 µM in test [5]; 27.4 µM in [6]; 67.5 µM in test [10]. For the same molecule, the TGI in test [7] was determined as 82.3 µM; in test [8] it was 77.7 µM.
As for `CC[C@H](C)C1=C(OC(C)=O)[N@+]2([O-])Oc3ccc(-c4c(OC(C)=O)c(OC(C)=O)c(-c5ccc(OC(C)=O)cc5)c(OC(C)=O)c4OC(C)=O)cc3O[C@]2([C@@H](C)CC)C(=O)N1OC(C)=O`, the TGI was found to be 0.031 µM in [1]; 28.5 µM in test [3]; 39.6 µM in [4]; 23.4 µM in [5]; 21.7 µM in test [6]; 27.1 µM in test [10]. The TGI in [7] is 22.5 µM; in test [8], over 50 µM.
Regarding `O=C(NN=C1CCCCC1)NN=C1CCCCC1`, the TGI in test [2], in test [9], in test [4], in [5] and in test [10] was over 100 µM in each case.
For `C[N+](C)(N)c1nc(N)c(C#N)c(C#N)c1C#N`, the TGI in [1], in test [2], in test [3], in test [4], in test [5] and in test [6] was over 10 µM each time. In addition, the TGI in test [10], in test [7] and in test [8] was over 10 µM each time.
As to `c1ccc(C2[C@@H]3CCCc4ccccc4C3=NN2c2ccccc2)cc1` (stereo partly specified), the TGI in [1], in [2], in test [4], in test [5], in test [6] and in test [10] was over 100 µM each time. In addition, the TGI in [7] and in [8] was over 100 µM throughout.
On to `OC(c1ccccc1)(c1cccnc1)C(O)(c1ccccc1)c1cccnc1` (stereo unspecified), for which the TGI in test [9], in [3], in [6], in test [10], in test [7] and in test [8] was over 100 µM each time.
For the molecule `CC(=O)CC(=O)/C=C/c1cccs1`, the TGI in test [2] was over 100 µM; in test [3], over 100 µM; in test [4] it was over 100 µM; in test [5], over 100 µM; in test [6] it was 72.5 µM; in test [10], over 100 µM. The TGI in test [7] and in test [8] was over 100 µM each time.
Regarding `Cc1cc(C)c(N=Nc2c(O)c(S(=O)(=O)O)cc3cc(S(=O)(=O)O)ccc23)cc1C`, the TGI in [2], in test [9], in [4], in test [5], in [10] and in [7] was over 100 µM throughout. In [8], this molecule gave a TGI of over 100 µM.
For `CC(=O)n1ccc2c(Cl)ncnc21`, the TGI in test [1], in [2], in test [3], in test [5], in test [6] and in test [10] was over 100 µM each time. Besides, the TGI in test [7] and in test [8] was over 100 µM each time.
As to `C=CC(Br)(CBr)CCC(Br)C(C)C` (stereo unspecified), the TGI turned out to be 9.71 µM in [2]; 11.5 µM in test [9]; 6.02 µM in [3]; 17.9 µM in [4]; 8.9 µM in [5]; 2.04 µM in [6]. Also, the TGI in [10] was found to be 8.44 µM; in [7], 32.3 µM; in test [8], 20.6 µM.
For the molecule `O=C1OC(=O)C2C1C(c1ccccc1[N+](=O)[O-])C=C(c1ccco1)N2c1ccncc1` (stereo unspecified), the TGI in test [2] is 38.2 µM; in [9], 35.4 µM; in test [3] it was 16.6 µM; in test [4], 29.8 µM; in test [5] it was 30.5 µM; in [6] it was 5.63 µM. Further, the TGI was determined as 24.5 µM in [10], 39.7 µM in test [7] and 3.24 µM in test [8].
Turning to `c1ccc(CCn2cncn2)cc1`, the TGI in [1], in test [2], in [3], in test [4], in test [5] and in [6] was over 100 µM each time. Also, the TGI in [10], in test [7] and in test [8] was over 100 µM throughout.
`C/C=C1\CC(C(=O)OCC)CCCCCCCCCCC1=O` (stereo unspecified): the TGI in test [2], in [9], in test [3], in [4], in test [6] and in test [10] was over 100 µM throughout. For the same molecule, the TGI in test [7] and in test [8] was over 100 µM in each case.
Turning to `COC[C@@H](Cc1ccc(OC)c(OC)c1)[C@@H](COC)Cc1ccc(OC)c(OC)c1`, the TGI in test [1], in test [3], in test [5], in test [6], in test [10] and in test [7] was over 100 µM each time. The TGI in test [8] is over 100 µM.
In the case of `CCC1(O)CC(OC2CC(N(C)C)C(OC3CC(O)C(OC4CCC(=O)C(C)O4)C(C)O3)C(C)O2)c2c(O)c3c(c(O)c2C1C(=O)OC)C(=O)c1cccc(O)c1C3=O` (stereo unspecified), the TGI in [1] was 0.04 µM; in [2], 0.138 µM and 0.119 µM; in test [3], 0.127 µM and 0.0653 µM; in test [4], 0.21 µM; in test [5], 10.3 µM; in test [6], 0.0496 µM. Further, the TGI in test [10] was 0.121 µM and 0.33 µM.
